Reference: patent US6365616B1, “Methimazole derivatives and tautomeric cyclic thiones to treat autoimmune diseases” (Sentron Medical, Inc., priority 1998, dated 2002)
Like-named read-outs stand apart in the source and are kept apart here.

B1: γ-IFN: rat recombinant γ-interferon, 100 U/ml, used to increase MHC class I and class II expression in FRTL-5 cells (protein, UniProt P01581 23-156, looked up)
Interferon gamma: QGTLIESLESLKNYFNSSSMDAMEGKSLLLDIWRNWQKDGNTKILESQIISFYLRLFEVLKDNQAISNNISVIESHLITNFFSNSKAKKDAFMSIAKFEVNNPQIQHKAVNELIRVIHQLSPESSLRKRKRSRC

Experiments:
Type in all cases: cell-based, rat
[1] = tested on: MHC class I antigen expression; assay: Flow cytometry of IFN-increased class I antigen expression in FRTL-5 cells; details: 100 U/ml γ-interferon, 6H medium (TSH), 40 hours
Protocol: In this experiment 10^6 cells were incubated with MHC class II or MHC class I-specific antibodies as described (Montani, V., et al., ibid (1998b); Saji, M., et al., ibid (1992a); Balducci-Silano, P. L., et al., Endocrinology 139:2309-2313 (1998)). After 30 min on ice, cells were washed with phosphate buffered saline at pH 7.4 and incubated for 30 min with fluorescein-isothiocyanate (FITC)-conjugated antibodies then analyzed by flow cytometry on a FACScan Cytometer using CellQuest software (Becton Dickinson).
The concentration needed to achieve suppression of the interferon induced class I or class II surface expression was determined by testing different concentrations of the compounds (Table 18). Like all other assays, the order of effectiveness was compound 10>11>7 or 8>2>MMI>3.

[2] = tested on: γ-IFN-increased protein/DNA complex with DRα 5′-flanking region probe; assay: Gel shift (EMSA) with 137 class II probe, extracts from γ-IFN-treated FRTL-5 cells; details: for % inhibition of IFN-increased complex formation: 137 class II probe, γ-IFN-treated 5H cells
Protocol: Cells were grown in 6H medium with 5 % calf serum for 6-7 days to 70-80% confluence, then shifted to 5H medium with 5 % calf serum for 5 days. TSH (1×10^−10 M), gamma-interferon (100 U/ml), MMI (5 mM), and different concentrations of MMI derivatives or tautomeric cyclic thiones (0.0001 to 10 mM) were added as appropriate for […]. Cells were then harvested and extracts were made by a modification of a method of Dignam, J., et al. Methods in Enzymology, 101:582-598 (1983). In brief, cells were harvested by scraping after being washed twice with cold phosphate-buffer saline (PBS). Subsequently they were pelleted, washed in cold PBS and then pelleted again. The pellet was resuspended in Dignam buffer C (20 mM Hepes buffer at pH 7.9, 1.5 mM MgCl2, 0.42 M NaCl, 25% glycerol, 0.5 mM dithiotreitol (DTT), 0.5 mM phenylmethylsulfonylfluoride (PMSF), 1 […] pepstatin). The final NaCl concentration was adjusted on the basis of cell pellet volume to 0.42 M and cells were lysed by repeated cycles of freezing and thawing. Extracts were then centrifuged at 10,000×g at 4° C. for 20 min. The supernatant was recovered, aliquoted and stored at −70° C.
Cell extracts to perform class II gel shift studies were prepared exactly as for class I studies (Dignam et al., ibid, 582-598 (1983); Giuliani C, et al., J. Biol. Chem. 270: 11453-11462 (1995); Saji M, et al., J. Biol. Chem. 272: 20096-20107 (1997); Montani, V., et al., Endocrinology 139: 280-289 (1998a); Montani, V., et al., Endocrinology 139: 290-302 (1998b)), with the exception that the extracts were from γ-interferon treated cells, usually 100 U/ml interferon for 24 to 48 hours. Similarly, electrophoretic mobility shift assays (EMSA) were performed in the same way. Oligonucleotides used for EMSA were synthesized (Operon Technologies, Inc.) or were purified from 2 % agarose gels using either QIAEX (Qiagen, Chatsworth, Calif.) or Jet Sorb (Genomed) following restriction enzyme treatment of chimeric HLA-DRα-CAT constructs (Montani et al., 1998a, b). The oligonucleotides were dephosphorylated with calf intestinal alkaline phosphatase, labeled with […] or with [γ-^32P]ATP using T4 polynucleotide kinase, then purified on an 8% native polyacrylamide gel (Giuliani C, et al., ibid, 11453-11462 (1995); Saji M, et al., ibid, 20096-20107 (1997); Sambrook J, et al., ibid, 2:11.23-11.44 (1989); Montani, V., et al., ibid, 280-289 (1998a), 290-302 (1998b)).
Binding reactions for class II EMSA used similar conditions as well. They were carried out in a volume of 20 μl for 30 min at room temperature. The reaction mixtures contained 1.5 fmol of [^32P]DNA, 3 μg cell extract and 1.5 to 3 μg poly(di-dC) in 10 mM Tris-Cl at pH 7.9, 1 mM MgCl2, 1 mM DTT, 1 mM EDTA, and 5% glycerol. Where indicated, unlabeled double- or single-stranded oligonucleotides were added to the binding reaction as competitors and incubated with the extract for 20 min at room temperature prior to the addition of labeled DNA. Similarly, in experiments using antiserum, extracts were also incubated in the same buffer containing antiserum or normal rabbit serum for 20 min at room temperature before being processed as above. Following incubations, reaction mixtures were subjected to electrophoresis on 3.5 or 5 % native polyacrylamide gels at 160 V in 0.5xTBE, at room temperature, for 1.5 to 2 h. Gels were dried and autoradiographed at -80° C overnight unless otherwise noted.
FIG. 7 depicts the effect of MMI on the ability of γ-IFN to increase the formation of protein/DNA complexes with the […] DR α5′-flanking region probe. The radiolabeled probe is the same as that used and diagrammatically presented in FIG. 6; it contains −137 bp to +45 bp of the 5′-flanking region of DRα-CAT chimera. Extracts were from FRTL-5 rat thyroid cells grown to near confluency in TSH, maintained 6 days in SH medium, then treated with 100 U/ml γ-IFN, 5 mM MMI, or both for the last 48 h before the experiment was terminated. […]

[3] = tested on: Y box protein (TSEP-1) RNA; assay: Northern analysis of Y box protein (TSEP-1) RNA levels in FRTL-5 cells; details: 40 hours
Text: Whereas γ-IFN decreases Y box protein RNA levels in FRTL-5 cells, MMI can reverse this action (FIG. 16). […] The rat TSEP-1 probe was the clone 31 insert, residues 5 to 1395 of the rat TSEP-1 nucleotide sequence reported (Ohmori, M., et al., ibid (1996)); rat β-actin was kindly provided by Dr. B. Paterson (NCI, Bethesda, Md.). Radiolabeling of all probes, hybridization (0.5-1.0×10^6cpm/ml), and washing were as described (Isozaki, O., et al., ibid (1989); Saji, M., et al., ibid (1992); Ohmori, M., et al., ibid (1996)).
The ability of the compounds to reverse the γ-IFN-induced decrease in TSEP-1 RNA levels is once again 10>11>7 or 8>2>MMI>3. This mimics data in all other assays.

MHC class I RNA = assay: Northern analysis of MHC class I RNA levels in FRTL-5 cells; details: for % inhibition of class I RNA expression (γ-interferon-treated) / % inhibition of class I RNA expression (basal): 100 μM; for inhibition at 1000 µM / inhibition at 5000 µM: Rattus norvegicus; for inhibition at 5000 µM: 5 mM
[4] = 100 U/ml γ-interferon, 6H medium (TSH), 40 hours
[5] = FRTL-5, 1 mM, 100 U/ml γ-interferon, 6H medium (TSH), 40 hours, read-out: % inhibition of class I RNA expression (γ-interferon-treated)
[6] = FRTL-5, 1 mM, basal, 5H medium, 40 hours, read-out: % inhibition of class I RNA expression (basal)
[7] = FRTL-5, 100 U/ml γ-interferon, 6H medium (TSH), 40 hours, read-out: % inhibition of class I RNA expression (γ-interferon-treated)
[8] = FRTL-5, basal, 5H medium, 40 hours, read-out: % inhibition of class I RNA expression (basal)

Molecule	% inhibition of IFN-increased complex formation ([2]; 10 μM) [%]	% inhibition of IFN-increased complex formation ([2]; 100 μM) [%]	% inhibition of IFN-increased complex formation ([2]; 1 mM) [%]	% inhibition of IFN-increased complex formation ([2]; 5 mM)	% inhibition of class I RNA expression (γ-interferon-treated) (MHC class I RNA; [4])	% inhibition of class I RNA expression (basal) (MHC class I RNA; basal, 5H medium, 40 hours)	inhibition at 1000 µM (MHC class I RNA; [5]) [%]	inhibition at 1000 µM (MHC class I RNA; [6]) [%]	inhibition at 5000 µM (MHC class I RNA; [7]) [%]	inhibition at 5000 µM (MHC class I RNA; [8]) [%]	also measured
Cn1ccnc1S [Compound 1, 1-Methylimidazole-2-thiol]	0	0	10 ± 5	85 ± 12%	None	None	29 ± 7	25 ± 10	52 ± 15	42 ± 8	Concentration to inhibit IFN-increased antigen expression, Class I [1]: 5 mM; Y box protein (TSEP-1) RNA level, compound +γIFN ([3]; 100 μM compound + γIFN): 42 ± 7%; Y box protein (TSEP-1) RNA level, compound ALONE ([3]; 100 μM compound alone): 105 ± 8%; Y box protein (TSEP-1) RNA level, compound +γIFN ([3]; 1 mM compound + γIFN): 87 ± 7%; Y box protein (TSEP-1) RNA level, compound ALONE ([3]; 1 mM compound alone): 104 ± 12%; Y box protein (TSEP-1) RNA level, compound +γIFN ([3]; 5 mM compound + γIFN): 149 ± 12%; Y box protein (TSEP-1) RNA level, compound ALONE ([3]; 5 mM compound alone): 115 ± 9%
Cc1ncc([N+](=O)[O-])n1CCO [Compound 2, 2-Methyl-5-nitro-1-imidazole ethanol]	0	0	55 ± 14	95 ± 10%	None	None	42 ± 5	49 ± 6	68 ± 13	63 ± 14	Concentration to inhibit IFN-increased antigen expression, Class I [1]: 0.5 ± 1.4 mM; suppression of interferon-induced class II protein/DNA complexes compared with MMI (FIG. 8) ([2]; 1 mM, FIG. 8): significantly more effective suppressors than MMI; Y box protein (TSEP-1) RNA level, compound +γIFN ([3]; 100 μM compound + γIFN): 43 ± 6%; Y box protein (TSEP-1) RNA level, compound ALONE ([3]; 100 μM compound alone): 104 ± 4%; Y box protein (TSEP-1) RNA level, compound +γIFN ([3]; 1 mM compound + γIFN): 126 ± 9%; Y box protein (TSEP-1) RNA level, compound ALONE ([3]; 1 mM compound alone): 106 ± 11%; Y box protein (TSEP-1) RNA level, compound +γIFN ([3]; 5 mM compound + γIFN): 163 ± 15%; Y box protein (TSEP-1) RNA level, compound ALONE ([3]; 5 mM compound alone): 112 ± 4%
Sc1nc2ccccc2[nH]1 [Compound 4, 2-Mercaptobenzimidazole]	0	5	65 ± 15	Insol	None	None					inhibition at 1000 µM (MHC class I RNA; FRTL-5, 40 h, read-out: % inhibition of class I RNA expression (basal)): 34 ± 13%; inhibition at 1000 µM (MHC class I RNA; FRTL-5, 40 h, read-out: % inhibition of class I RNA expression (γ-interferon-treated)): 37 ± 10%
O=[N+]([O-])c1ccc2[nH]c(S)nc2c1 [Compound 5, 2-Mercapto-5-nitrobenzimidazole]	0	0	45 ± 21	Insol	None	None	19 ± 7	32 ± 11			
Cc1ccc2[nH]c(S)nc2c1 [Compound 6, 2-Mercapto-5-methylbenzimidazole]	0	0	35 ± 18	Insol	None	None	22 ± 16	23 ± 15	23 ± 11		
Cc1cnc(S)n1C [Compound 9, 5-Methylmethimazole]	0	0	25 ± 15	40 ± 20%	None	None	9 ± 5	15 ± 14	24 ± 6	30 ± 5	
B1											Y box protein (TSEP-1) RNA level +γIFN, % Control ([3]; γ-IFN alone, 100 Units/ml): 45 ± 6%
